Assay results: patent publication US20140377171A1, “Imaging and Treatment of Neuroendocrine Tumors with Glucose - Dependent Insulinotropic Polypeptide or Analogues or Antagonists Thereof” (priority 2011, published 2014)

What was measured:
[1] = test system: GIP receptor; conditions: cited from earlier work
[2] = test system: GIP receptor; conditions: cited from earlier work; remark: listed apart in the source
[3] = cited from earlier work; for biological activity: truncated forms of GIP
[4] = target: T1, GIP receptors (Homo sapiens, UniProt P48546); assay: In vitro GIP receptor autoradiography: displacement of 125I-GIP(1-30) in tissue sections; type: binding; conditions: increasing concentrations of cold peptide; tumor and normal pancreatic islets, all examples
T1 construct: from tissue; host or cells: fresh frozen human tumor tissue (neuroendocrine tumors) and non-neoplastic human tissue (pancreatic islets) from surgical resection
T1 sequence (P48546 22-466): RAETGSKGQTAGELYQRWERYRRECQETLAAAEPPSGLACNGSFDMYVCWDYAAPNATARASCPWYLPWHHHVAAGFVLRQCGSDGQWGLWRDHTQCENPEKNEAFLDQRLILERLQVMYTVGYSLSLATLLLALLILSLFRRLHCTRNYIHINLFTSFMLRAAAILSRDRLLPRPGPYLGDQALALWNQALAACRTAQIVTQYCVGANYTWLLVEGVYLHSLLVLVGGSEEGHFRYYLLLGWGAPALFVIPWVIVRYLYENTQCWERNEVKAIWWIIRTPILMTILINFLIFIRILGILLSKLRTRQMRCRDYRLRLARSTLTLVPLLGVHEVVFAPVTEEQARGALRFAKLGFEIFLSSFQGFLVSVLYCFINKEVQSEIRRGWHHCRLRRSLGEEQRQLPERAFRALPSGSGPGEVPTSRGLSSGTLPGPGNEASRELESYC
Method: It was radiolabeled by the lactoperoxidase method and purified by HPLC (Anawa, Wangen, Switzerland). The two lodo-Tyrosine analogues (peak 1 iodinated at Tyr^1 and peak 2 iodinated at Tyr^10) were analyzed by LC-ESI-MS-MS (R. Brunisholz, Functional Genomics Center Zürich, ETHZ). […] After incubation, the slides were washed five times in ice-cold Tris-HCl buffer (170 mM; pH 8.2) containing 0.25% BSA and twice in ice-cold Tris-HCl buffer without BSA. The slides were dried for 15 minutes under a stream of cold air and then exposed to Kodak films Biomax MR® for seven days at 4° C. The signals on the films were analyzed in correlation with morphology using corresponding H&E stained tissue slides. The receptor density was quantitatively assessed using tissue standards for iodinated compounds (Amersham, Aylesbury, UK) and a computer-assisted image processing system (Analysis Imaging System, Interfocus, Mering, Germany).

[5] = test system: islet cells; assay: β-Cell imaging with GIP radioligands, ex vivo pancreas autoradiography; type: in vivo, Sprague-Dawley rats; conditions: i.v., with or without unlabeled GIP(1-30); autoradiography correlated with insulin immunostaining
Text: Animals were euthanized and the pancreas was extracted, immediately frozen, and sectioned. The sections were apposed to radiosensitive films, scanned, and immunostained for insulin.

[6] = test system: TT cells (human medullary thyroid cancer cells); conditions: 1 nM to 1000 nM GIP for 3 hours, supernatant
Method: Calcitonin levels (C, pg/ml) were determined from the cell supernatant using the Calcitonin-kit from Siemens.
TT cells (derived from a human medullary thyroid carcinoma; ATCC Number: CRL-1803) were plated in 24-well plates (100′000 cells per well) and cultured for 48 hours in growth medium (nutrient mixture F12 Ham Kaighn's modification containing L-glutamine and supplemented with 10% fetal bovine serum) at 37° C. and 5% CO2. Subsequently the growth medium was replaced by the serum-free challenge medium (RPMI 1640, 10 mM HEPES and GlutaMax-I) and the cells were incubated for further 48 hours at 37° C. and 5% CO2. […] As negative control cells were treated with challenge medium containing vehicle alone. The cells were incubated for 3 hours at 37° C. and 5% CO2.

Substance: GIP1-14: GIP fragment capable of receptor binding (YAEGTFISDYSIAM; Gastric inhibitory polypeptide; UniProt P09681 52-65, looked up, fragment)
- activation of adenylyl cyclase [1]: activation of adenylyl cyclase
- receptor binding [2]: capable of receptor binding

Substance: GIP1-39: truncated form of GIP (YAEGTFISDYSIAMDKIHQQDFVNWLLAQKGKKNDWKHN; Gastric inhibitory polypeptide; UniProt P09681 52-90, looked up, fragment)
- biological activity [3]: retain a high degree of biological activity

Substance: GIP3-42: peptide resulting from cleavage of GIP by DPP-IV; antagonist (EGTFISDYSIAMDKIHQQDFVNWLLAQKGKKNDWKHNITQ; Gastric inhibitory polypeptide; UniProt P09681 54-93, looked up, fragment)
- functional mode at the GIP receptor [1]: antagonist of GIP1-42 induced cAMP production
- insulinotropic activity ([3]; product of DPP-IV cleavage): lacking insulinotropic activity

Substance: GIP6-30: GIP fragment binding with high affinity, antagonist (FISDYSIAMDKIHQQDFVNWLLAQK; Gastric inhibitory polypeptide; UniProt P09681 57-81, looked up, fragment)
- functional mode at the GIP receptor [1]: act as antagonists
- receptor binding [2]: high affinity

Substance: GIP7-30-NH2: GIP fragment amide binding with high affinity, antagonist
- functional mode at the GIP receptor [1]: act as antagonists
- receptor binding [2]: high affinity

Substance: GIP19-30: C-terminal GIP fragment capable of receptor binding (QQDFVNWLLAQK; Gastric inhibitory polypeptide; UniProt P09681 70-81, looked up, fragment)
- activation of adenylyl cyclase [1]: activation of adenylyl cyclase
- receptor binding [2]: capable of receptor binding

Substance: GIP(1-30): truncated form of GIP; cold human GIP(1-30), parent peptide of the radioligand (YAEGTFISDYSIAMDKIHQQDFVNWLLAQK; Gastric inhibitory polypeptide; UniProt P09681 52-81, looked up, fragment)
- biological activity [3]: retain a high degree of biological activity

Substance: GLP-2: GLP-2 receptor selective agonist (Bachem)
- displacement of 125I-GIP(1-30) (affinity) [4]: not displaced

Substance: ^111In-DOTA-GIP(1-30): GIP(1-30) carrying 111In complexed through DOTA chelator; GIP radioligand for β-cell imaging
- localisation of radioligand binding in pancreas [5]: restricted to islet cells

Substance: glucagon(1-29): glucagon receptor selective agonist (Bachem)
- displacement of 125I-GIP(1-30) (affinity) [4]: not displaced

Substance: glucose-dependent insulinotropic polypeptide [GIP]
- calcitonin release [6]: stimulates calcitonin release
